Assay [1] has as its system BXF T24. In words: In vitro 3D clonogenic assay (colony formation in semi-solid medium). The note with it: read-out: Absolute IC50 values. The class given is cell-based, human. On the procedure: (§1) In the present study, terconazole and cisplatin were evaluated for their ability to inhibit anchorage independent growth and ex vivo colony formation of tumor cells in semi-solid medium. The compounds were tested against 5 human tumor cell lines of bladder cancer. Test concentrations ranged, from 0.0316 μM to 316.2 μM (terconazole), or from 0.00316 μM to 100 μM (cisplatin).
(§2) Terconazole and the reference compound cisplatin were investigated for anticancer activity ex vivo in five human tumor cell lines of bladder cancer. Tests were carried out using a 3D clonogenic assay in 96-well format with image based read-out. The aim of the study was to investigate antitumor potency and tumor type selectivity of the compound.
Clonogenic Assay Procedure: The clonogenic assay was carried out in a 96 well plate format using ultra low attachment plates. […] Cultures were incubated at 37° C. and 7.5% CO2 in a humidified atmosphere for 8 to 13 days and monitored closely for colony growth using an inverted microscope. […]

Another assay concerns BXF 1036L. In words: In vitro combination study, 3D clonogenic assay, 5x5 matrix. Type of assay: cell-based. The note with it: Homo sapiens, monotherapy controls of 5x5 matrix, soft agar, read-out: IC50, colony formation, single agent. On the procedure: (§3) Summary: Terconazole was tested alone and in combination with cisplatin in order to investigate the ability to inhibit tumor cell growth of bladder cancer cell lines in a 5×5 matrix combination format. Efficacy of the combinations was assessed by measuring anchorage-independent growth and in vitro tumor colony formation using a 3D clonogenic assay in cell lines BXF 1036L, BXF 1218L, and BXF T24.
(§4) The objective of this study was to assess anti-tumor efficacy of CIPDE033 and CIPDE034 in combination with cisplatin in a 5×5 matrix combination format against various bladder cancer cell lines. Efficacy of the combinations was assessed by measuring anchorage-independent growth and in vitro tumor colony formation using a 3D clonogenic assay in cell lines BXF 1036L, BXF 1218L, and BXF T24. […]
(§5) Cultivation of Cell Lines: Cell lines were routinely passaged once or twice weekly and maintained in culture for up to 20 passages. […] The percentage of viable cells was determined in a Neubauer-hemocytometer using trypan blue exclusion.
(§6) 3D Clonogenic Assay Procedure: The clonogenic assay was carried out in a 96 well plate format using ultra low attachment plates. […] Cultures were incubated at 37° C. and 7.5% CO2 in a humidified atmosphere for 8 to 13 days and monitored closely for colony growth using an inverted microscope. […]

For assay [2], the system named is BXF T24. The description is as above. The class given is cell-based. The note with it: Homo sapiens; monotherapy controls of 5x5 matrix, BXF T24, soft agar; read-out: IC50, colony formation, single agent. On the procedure: as §3, §4, §5, §6
For another assay, the system named is HTB-5. In words: In vitro anticancer activity, bladder carcinoma efficacy models (cytotoxicity/clonogenic). The class given is cell-based, human. The note with it: HTB-5, varied concentrations. On the procedure:
(§7) Human bladder cancer cell lines HTB-5, HT-1376 and T-24 were purchased from American Type Culture Collection, USA. Cell lines HTB-5 and HT1376 were routinely cultured in Eagle's Minimum Essential Medium with 10% fetal bovine serum and T-24 in McCoy's 5A medium with 10% fetal bovine serum. All cell lines were maintained at 37° C. in a humidified atmosphere containing 5% CO2.
(§8) In vitro cytotoxicity assay: Cells were plated in 96-well cell culture plates (4×10^3 cells/well) and were treated with drugs at various concentrations. Treated cells were maintained at 37° C. in 5% CO2 for 48 and 72 hrs. After the incubation antiproliferative activity of test compounds was measured using ProMega Cell Titer aqueous one solution cell proliferation assay kit, viz. CellTiter 96® AQueous One Solution Reagent. Cells were incubated for 1-4 hours at 37° C., 5% CO2 incubator and absorbance was measured at 490 nm using a plate reader. IC50 values were determined by plotting compound concentration versus cell viability.
(§9) Clonogenic assay: bladder cancer cell lines viz HTB-5, HT-1376 and T-24 cells were plated at different densities i.e. 300 cells/well and 400 cells/well respectively in 3 ml volume per well into six-well plates and incubated overnight at 37° C. in a 5% CO2 incubator. […] Medium with drug was then replaced with medium without drug and plates were further incubated till visible colonies appeared (approximately for 12-14 days). Cells were then fixed with methanol:glacial acetic acid (2:1) and stained with 0.5% crystal violet. After staining for 2-3 min, plates were rinsed twice with D/W, dried and images were captured.

The subject of another assay is T-24. The assay is described as above. The note with it: T-24, varied concentrations. The class given is cell-based, human. On the procedure:
as §7, §8, §9

The next assay has as its system HT1376. Described as above. The conditions noted are these: HT1376, varied concentrations. The class given is cell-based, human. On the procedure:
as §7, §8, §9

In a further assay the target is T1, rat spleen HO-1 (Rattus norvegicus, UniProt P06762).
T1 construct: host or cells: rat spleen
T1 sequence (P06762 1-289): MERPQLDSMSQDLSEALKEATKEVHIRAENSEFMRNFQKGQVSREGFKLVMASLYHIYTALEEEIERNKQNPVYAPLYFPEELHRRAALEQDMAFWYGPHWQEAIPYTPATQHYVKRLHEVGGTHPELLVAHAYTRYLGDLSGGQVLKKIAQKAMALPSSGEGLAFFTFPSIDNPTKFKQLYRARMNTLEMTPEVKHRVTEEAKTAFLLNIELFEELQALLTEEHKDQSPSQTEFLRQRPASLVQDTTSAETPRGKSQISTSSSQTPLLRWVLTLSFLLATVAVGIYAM
The conditions noted are these: reported in literature; read-out: IC50, inhibition of rat spleen HO-1 activity; cited from earlier work.

The test system of assay [3] is BXF T24. The assay is described as follows: In vitro 2D assay, CellTiter-Blue Cell Viability Assay. The class given is cell-based. The conditions noted are these: Homo sapiens, BXF T24, 96 h, read-out: Absolute IC50 values. On the procedure:
(§10) The in-vitro anti-tumor activity of terconazole was assessed in five selected human bladder cancer cell lines. The test compounds were applied at 9 concentrations in half-log increments. As a reference compound cisplatin was tested in parallel. Cells were treated for 96 h with the test compounds. Anti-tumor activity was assessed by using the CellTiter-Blue® Cell Viability Assay. Potency is expressed as absolute IC50 and relative IC50 values, calculated by non-linear regression analysis.
(§11) Tumor Cell Lines: In the present study the human bladder cancer cell lines BXF 1036, BXF 1218, BXF 1352, 5637 and T24 were used. BXF 1036, BXF 1218 and BXF 1352 were established at Oncotest from the corresponding human patient derived xenograft. T24 was purchased from ATCC (Rockville, Md., USA) and 5637 was from DSMZ (Braunschweig, Germany). Authenticity of cell lines was confirmed at the DSMZ by STR (short tandem repeat) analysis, a PCR based DNA-fingerprinting methodology. Cell lines were routinely passaged once or twice weekly and maintained in culture for up to 20 passages. All cells were grown at 37° C. in a humidified atmosphere with 5% CO2 in RPMI 1640 medium (25 mM HEPES, with L-glutamine, #FG1385, Biochrom, Berlin, Germany) supplemented with 10% (v/v) fetal calf serum (Sigma, Taufkirchen, Germany) and 0.1 mg/mL gentamicin (Life Technologies, Karlsruhe, Germany).
(§12) Cell Proliferation Assay: The CellTiter-Blue® Cell Viability Assay (#G8081, Promega) was used according to manufacturer's instructions. Briefly, cells were harvested from exponential phase cultures, […] on the cell line's growth rate. After a 24 h recovery period to allow the cells to resume exponential growth, test compounds were added. Compounds were applied at 9 concentrations in half-log increments in duplicate and treatment continued for 96 h. After 96 h treatment of cells, 20 μL/well CellTiter-Blue® reagent was added.
(§13) Following an incubation period of up to four hours, fluorescence (FU) was measured by using the Enspire Multimode Plate Reader (excitation k=531 nm, emission k=615 nm). For calculations, the mean values of duplicate/sixfold (untreated control) data were used. Sigmoidal concentration-response curves were fitted to the data points (T/C values) obtained for each cell line using 4 parameter non-linear curve fit (Oncotest Warehouse Software).

The test system of assay [4] is BXF 1218. The description is as above. The conditions noted are these: Homo sapiens, BXF 1218, 96 h, read-out: Absolute IC50 values. The class given is cell-based. On the procedure: as §10, §11, §12, §13
For assay [5], the system named is BXF 1352. Described as above. Type of assay: cell-based. The conditions noted are these: Homo sapiens, BXF 1352, 96 h, read-out: Absolute IC50 values. On the procedure: as §10, §11, §12, §13
The subject of assay [6] is BXF 1036. Described as above. The class given is cell-based. The note with it: Homo sapiens, BXF 1036, 96 h, read-out: Absolute IC50 values. On the procedure:
as §10, §11, §12, §13

Assay [7] concerns BXF 5637. Described as above. Type of assay: cell-based. The conditions noted are these: Homo sapiens, BXF 5637, 96 h, read-out: Absolute IC50 values. On the procedure: as §10, §11, §12, §13
In assay [8] the test system is BXF 1218. The assay is described as follows: In vitro 3D clonogenic assay (colony formation in semi-solid medium). Type of assay: cell-based. The note with it: Homo sapiens, read-out: Absolute IC50 values. On the procedure: as §1, §2
(§14) Clonogenic Assay Procedure: The clonogenic assay was carried out in a 96 well plate format using ultra low attachment plates. For each test, cells were prepared as described above and assay plates were prepared as follows: each test well contained a layer of semi-solid medium with tumor cells (50 and a second layer of medium supernatant with or without test compound (100 The cell layer consisted of 2·10^3 to 3·10^3 tumor cells per well, which were seeded in 50 μL/well cell culture medium (IMDM, supplemented with 20% (v/v) fetal calf serum, 0.01% (w/v) gentamicin, and 0.4% (w/v) agar. After 24 hours the test compounds were added after serial dilution in cell culture medium, and left on the cells for the duration of the experiment (continuous exposure, 100 μl drug overlay). Every plate included six untreated control wells and drug-treated groups in duplicate at 9 concentrations. Cultures were incubated at 37° C. and 7.5% CO2 in a humidified atmosphere for 8 to 13 days and monitored closely for colony growth using an inverted microscope. Within this period, ex vivo tumor growth led to the formation of colonies with a diameter of >50 μm. At the time of maximum colony formation, counts were performed with an automatic image analysis system (Bioreader 5000-Wa Biosys GmbH). 48 hours prior to evaluation, vital colonies were stained with a sterile aqueous solution of 2-(4-iodophenyl)-3-(4-nitrophenyl)-5-phenyltetrazolium chloride (1 mg/ml, 100 μl/well)

The subject of assay [9] is BXF 1352. Described as above. The class given is cell-based. The note with it: Homo sapiens, read-out: Absolute IC50 values. On the procedure: as §1, §2, §14
The test system of assay [10] is BXF 1036. The description is as above. Type of assay: cell-based. The note with it: Homo sapiens, read-out: Absolute IC50 values. On the procedure:
as §1, §2, §14

Assay [11] relates to BXF 5637. Described as above. The class given is cell-based. The conditions noted are these: Homo sapiens, read-out: Absolute IC50 values. On the procedure: as §1, §2, §14
The subject of assay [12] is five selected human bladder cancer cell lines. The assay is described as follows: In vitro 2D assay, CellTiter-Blue Cell Viability Assay, mean over panel. Type of assay: cell-based. The conditions noted are these: 96 h, read-out: Geometric Mean Absolute IC50 values. On the procedure: as §10
Tumor Cell Lines: In the present study the human bladder cancer cell lines BXF 1036, BXF 1218, BXF 1352, 5637 and T24 were used. BXF 1036, BXF 1218 and BXF 1352 were established at Oncotest from the corresponding human patient derived xenograft. T24 was purchased from ATCC (Rockville, Md., USA) and 5637 was from DSMZ (Braunschweig, Germany). Authenticity of cell lines was confirmed at the DSMZ by STR (short tandem repeat) analysis, a PCR based DNA-fingerprinting methodology. Cell lines were routinely passaged once or twice weekly and maintained in culture for up to 20 passages. […]
Following an incubation period of up to four hours, fluorescence (FU) was measured by using the Enspire Multimode Plate Reader (excitation k=531 nm, emission k=615 nm). […]

The subject of assay [13] is 5 human tumor cell lines of bladder cancer. In words: In vitro 3D clonogenic assay, panel summary. The class given is cell-based. The note with it: for IC50: Homo sapiens. On the procedure:
as §1, §2, §14

Read-outs that look alike come from different tables or passages of the source.

As to `N.N.[Cl][Pt][Cl]` [Cisplatin, cisplatin], in the assay with BXF T24 [1], the IC50 was found to be 53 µM.
As to `CC(C)N1CCN(c2ccc(OC[C@@H]3CO[C@@](Cn4cncn4)(c4ccc(Cl)cc4Cl)O3)cc2)CC1` (racemic) [Terconazole], the IC50 in the assay with BXF 1036L was 27.1 µM; in the assay on BXF T24 [2] it was 59.8 µM; in the assay on BXF T24 [1] (Homo sapiens), 33.1 µM; on rat spleen HO-1, 0.41 ± 0.01 µM; with BXF T24 [3], 41.5 µM; with BXF 1218 [4], 46.9 µM. In addition, the IC50 amounted to 45.9 µM in the assay on BXF 1352 [5]; 29.4 µM in the assay with BXF 1036 [6]; 38.4 µM in the assay with BXF 5637 [7]; 40.3 µM in the assay on BXF 1218 [8]; 36.6 µM with BXF 1352 [9]; 29.7 µM in the assay with BXF 1036 [10]. The IC50 is 30.8 µM with BXF 5637 [11]; 39.9 µM in [12]; 33.5 µM in [13] (read-out: mean relative IC50 value); 29.6 to 40.1 µM in assay [13] (3D clonogenic assay, colony formation, read-out: IC50 values, range over all bladder cancer cell lines tested); 33.9 µM in assay [13] (3D clonogenic assay, five cell lines, read-out: Geometric Mean Absolute IC50 values). Moreover, the “anticancer activity in vitro” value with HTB-5, in the assay with T-24 and in the assay on HT1376 was “significant anticancer activity” throughout. Also, the “Bottom plateaus of the concentration-effect curves” value in assay [13] (3D clonogenic assay, responding tumor models) is recorded as 0%.

The values above are taken from US11207319B2, “Method for the treatment of bladder cancer” (Cipla Limited, priority 2015, dated 2021).
